Measurements as given in US10952940B2, “Reagents and methods for mineralization of tooth enamel” (UNIVERSITY OF WASHINGTON, priority 2016, dated 2021).

Columns and labels:
[1] = In vitro re-mineralization of tea-stained rat tooth using the peptide solution; details: tea-stained rat tooth quarter; peptide 10 min 37° C., then CaCl2/KH2PO4 16 hours
Procedure: Rat teeth (molars) were obtained from sacrificed rats (for example, Sprague Dawley rats, age 3 weeks or older) from animal facility, collected, and stored in 100% alcohol. Prior to the re-mineralization experiments the teeth were stored in 1% bleach for 24 hours. […] The teeth were then dried in an incubator in air at 37° C. for 3-6 hours to produce dry surface. The root site and section the crown were removed vertically using a diamond blade. Pictures were taken with camera attached to optical microscope. Exposed dentine sites in the one half of the sectioned tooth were etched with 35% phosphoric acid (Ultraetch™) for 60 seconds (to facilitate the stain intake). The etching gel was removed by rinsing the sample with distilled water for 3 minutes. The staining solution was prepared by boiling 2 g of tea in 100 ml of deionized water for 5 minutes, and then cooled down to room temperature and filtered. The tooth sample was soaked in the staining solution and incubated at 37° C. at 150 rpm for 24 hours. The tooth was removed from the staining solution and sonicated for 30 seconds in deionized water (sonic bath) to remove the excess amount of tea particles attached to tooth extrinsically. The one half of the sectioned tooth was cut vertically into half again to form two quarter sections of the tooth. A second set of pictures were taken with camera attached to optical microscope. […]

[2] = Solution mineralization approach, color measurements with Chroma Meter; design: species or system human; details: peptide 10 min, calcium/phosphate ions 2 hours, 37° C.; 25 rounds
Description: The root site of an extracted human tooth was removed and the crown portion of the tooth was sectioned vertically into half. A thin layer of enamel was removed from one half of the sectioned tooth such that the dentin layer is exposed without completely removing the enamel on the tooth. This allowed imaging of the enamel surfaces after the mineralization experiment without the problem of surface reflection, and provides a more parallel surface from which to compare the whiteness results. The sectioned tooth was fixed onto a glass slide with epoxy. Initial color measurements of each of the four sides of the sectioned tooth were obtained using a Minolta Chroma Meter CR-200 (Konica Minolta, Tokyo, Japan), according to manufacturer instructions, using a white background and a black background. The sectioned tooth was incubated in a mineralization polypeptide solution for 10 minutes at 37° C. and then in a solution with calcium ions and phosphate ions for 2 hours at 37° C. Color measurements of each of the four sides of the sample were taken as described initially. The sectioned was rinsed with deionized water and the remineralization process (incubation in polypeptide solution, incubation in solution of ion sources, and rinsing with deionized water) was repeated for a total of 25 rounds. The mineralization polypeptide was SYENSHSQAINVDRT (shADP5; SEQ ID NO:16).

[3] = Nanoindentation of mineralized layers in cross-section; design: species or system human
Description: Similar to SEM specimen preparation, tooth samples were notched from the back of tooth before remineralization, then fractured along the notch. The specimens were then mounted in a room temperature-cure epoxy, and the cross-section of the fracture was polished to 0.1 μm finish using diamond lapping films (Allied High Tech Products Inc., Rancho Dominguez, Calif., USA). Nanoindentation measurements were made using a Triboindentor nanoindentation system (Hysitron Inc., Minneapolis, Minn., USA) in air. Hardness (H) and elastic modulus (Er) were determined by the software accompanying the nanoindentation unit.^40-42 In order to obtain the values that were not indentation volume dependent, maximum indentation depth for all measurements kept at 120±10 nm. All reported H and Er values were averaged over 20 measurements.
Nanoindentation, on the other hand, can handle a much smaller applied load, e.g., in the range of 700 to 800 μN; this range of loads to maintain a nominal total indentation depth of approximately 100 nm (<1 μm in indentation width) reasonable depth for both the WSL and mineralized layer regions. The method provides a dynamic measurement with the indentation system tracking continuously load vs. depth during the indentation process providing a Force-to-depth (F-d) profile of the mechanical response of the sample, including biological hard tissues such as enamel, dentin, and bone. The hardness and elastic modulus were extracted from the linear extrapolation of the unloading curve (see FIG. 14b). Hardness obtained by this method contains partial elastic deformation as well as plastic deformation. With small indentation depth and footprint, indentation characterization of the mineral layer only was possible in cross-section for the group 6 samples where mineral layers were more than 5 μm thick. All other treatment groups, reliable nanoindentation characterization of the layers […] because of the thin, and in some cases, discontinuous natural of the layers. It should also be noted that the nanomechanical properties of the artificially created lesion were also determined, with values similar to those of the mineralized layers. Regardless, the complete nanoindentation values are tabulated in Table 10 where each value represents more than 20 measurements per sample.

[4] = mineralized layer, n ≥ 20, listed as Group 6 (shADP5)
[5] = mineralized layer, n ≥ 20, listed as group 6
[6] = underlying enamel of Group 6 samples

Sequence: SYENSHSQAINVDRT [shADP5, 15-amino acid long amelogenin-derived peptide, shortened human ADP5]
- tooth color compared with control [1]: lighter in color than the control
- whiteness of the tooth enamel [2]: improved with each round of remineralization
- Elastic Modulus (nanoindentation) [3, 4]: 58.6 ± 4.7 GPa
- Hardness (nanoindentation) [3, 4]: 2.23 ± 0.23 GPa
- Elastic Modulus (nanoindentation) [3, 5]: 58.6±4.7 GPa
- Hardness (nanoindentation) [3, 5]: 2.23±0.23 GPa
- Elastic Modulus (nanoindentation) [3, 6]: 55.0 ± 4.6 GPa
- Hardness (nanoindentation) [3, 6]: 2.12 ± 0.21 GPa
